In US7718160B2, “Radiolabeled compounds and liposomes and their method of making and using same” (The Board of Regents of the University of Texas System, priority 2002, dated 2010):
Entries after “also recorded” stand apart in the source; their conditions may differ. Blank lines part the entries; values can stand above or below the molecule they belong to.

Tests used:
Type in all cases: in vivo
[1] = Normal rat biodistribution of ^99mTc-liposomes at 20 hours after intravenous injection
Description: For comparison, biodistributions of the ^99mTc-“SNS/S” complexes used for liposome labeling were also performed.

[2] = Gamma camera images of normal rats after intravenous injection (^99mTc); details: rat, baseline, 1 hour, 4 hours and 20 hours after intravenous injection
Description: (H: Heart; S: Spleen; L: Liver; Bo: Bowel; B1: Bladder.)
(H: Heart; S: Spleen; L: Liver; Bo: Bowel.)
From the images, significant differences between ^99mTc-liposome labeled with ^99mTc-“BMEDA” and ^99mTc-“BMEDA” alone were observed. […] From the images, significant differences between ^99mTc-liposome labeled with ^99mTc-“BMEDA+BT” and ^99mTc-“BMEDA+BT” alone were observed.

[3] = Normal rat biodistribution of ^186Re-liposomes at 72 hours after intravenous injection
[4] = Gamma camera images of normal rats after intravenous injection (^186Re); details: rat, baseline, 1 hour, 4 hours, 24 hours and 72 hours after intravenous injection

distribution behavior [1]: does not
Compound: CCN(CC)CCN(CCS)CC[S][99Tc]1(=[O])[S]CCN(CCN(CC)CC)CC[S]1 [^99mTc-“BMEDA” alone]
distribution seen in gamma camera images [2]: fast blood clearance, fast excretion into bowel and urine, and no spleen accumulation

% ID/Gram (Average ± Sd), Blood ([3]; normal rat): 0.022 ± 0.001 % ID/Gram | % ID/Gram (Average ± Sd), Bowel ([3]; normal rat): 0.34 ± 0.19 % ID/Gram | % ID/Gram (Average ± Sd), Brain ([3]; normal rat): 0.0035 ± 0.0007 % ID/Gram | % ID/Gram (Average ± Sd), Feces ([3]; normal rat): 4.82 ± 1.53 % ID/Gram | % ID/Gram (Average ± Sd), Femur ([3]; normal rat): 0.014 ± 0.000 % ID/Gram | % ID/Gram (Average ± Sd), Heart ([3]; normal rat): 0.069 ± 0.007 % ID/Gram | % ID/Gram (Average ± Sd), Kidney ([3]; normal rat): 4.49 ± 0.37 % ID/Gram | % ID/Gram (Average ± Sd), Liver ([3]; normal rat): 0.54 ± 0.05 % ID/Gram | % ID/Gram (Average ± Sd), Lung ([3]; normal rat): 0.23 ± 0.03 % ID/Gram | % ID/Gram (Average ± Sd), Muscle ([3]; normal rat): 0.0048 ± 0.0005 % ID/Gram | % ID/Gram (Average ± Sd), Skin ([3]; normal rat): 0.029 ± 0.012 % ID/Gram | % ID/Gram (Average ± Sd), Spleen ([3]; normal rat): 0.38 ± 0.14 % ID/Gram | % ID/Gram (Average ± Sd), Testis ([3]; normal rat): 0.015 ± 0.003 % ID/Gram | % ID/Gram (Average ± Sd), Urine ([3]; normal rat): 0.79 ± 0.08 % ID/Gram | % ID/Organ (Average ± Sd), Blood ([3]; normal rat): 0.49 ± 0.04 % ID/Organ | % ID/Organ (Average ± Sd), Bowel ([3]; normal rat): 6.67 ± 3.31 % ID/Organ | % ID/Organ (Average ± Sd), Brain ([3]; normal rat): 0.0052 ± 0.0007 % ID/Organ | % ID/Organ (Average ± Sd), Feces ([3]; normal rat): 20.54 ± 4.35 % ID/Organ | % ID/Organ (Average ± Sd), Femur ([3]; normal rat): 0.58 ± 0.06 % ID/Organ | % ID/Organ (Average ± Sd), Heart ([3]; normal rat): 0.076 ± 0.005 % ID/Organ | % ID/Organ (Average ± Sd), Kidney ([3]; normal rat): 10.42 ± 0.93 % ID/Organ | % ID/Organ (Average ± Sd), Liver ([3]; normal rat): 5.97 ± 0.35 % ID/Organ | % ID/Organ (Average ± Sd), Lung ([3]; normal rat): 0.37 ± 0.06 % ID/Organ | % ID/Organ (Average ± Sd), Muscle ([3]; normal rat): 0.79 ± 0.07 % ID/Organ | % ID/Organ (Average ± Sd), Skin ([3]; normal rat): 1.48 ± 0.51 % ID/Organ | % ID/Organ (Average ± Sd), Spleen ([3]; normal rat): 0.21 ± 0.05 % ID/Organ | % ID/Organ (Average ± Sd), Testis ([3]; normal rat): 0.058 ± 0.004 % ID/Organ | % ID/Organ (Average ± Sd), Urine ([3]; normal rat): 26.93 ± 4.23 % ID/Organ
Compound: CCN(CC)CCN(CCS)CC[S][186Re]1(=[O])[S]CCN(CCN(CC)CC)CC[S]1 [^186Re-“BMEDA” Alone]
spleen accumulation ([3]; rat): did not show the spleen accumulation behavior | distribution seen in gamma camera images [4]: significant excretion from the hepatobiliary system and no apparent spleen accumulation; also recorded: fast blood clearance, fast excretion into bowel and urine, and no spleen accumulation | distribution seen in gamma camera images ([4]; listed as 186Re-“BMBDA” alone): fast blood clearance, fast excretion into bowel and urine, and no spleen accumulation
